In PMC11292009, “Mapping protein binding sites by photoreactive fragment pharmacophores” (Communications Chemistry, 2024):

Legend:
Assay type in all cases: binding
lysozyme (Lyo) = experiment: Intact protein MS photoaffinity labeling screen, lysozyme; conditions: intact protein MS after 10 min irradiation
Protocol: (§1) Using a plate-based format with one fragment per well, each fragment was incubated with the target proteins for 15 min to allow for the formation of non-covalent interactions. […] Finally, the results were directly analyzed from the plate using intact protein mass spectrometry by observing the mass additions that correspond to successful labeling (Fig. 2c, for labeling % values see Supplementary data). The library was first characterized against three benchmark proteins like carbonic anhydrase (CA), lysozyme (Lyo), and myoglobin (Myo).

[1] = test system: carbonic anhydrase II (CA); experiment: Intact protein MS photoaffinity labeling screen, carbonic anhydrase; conditions: intact protein MS after 10 min irradiation
Protocol: as §1

BRD4-BD1 = test system: T1, BRD4-BD1; experiment: Intact MS photoaffinity labeling screen, BRD4-BD1 (302 nm, LCMS-TOF); conditions: for experimental hit status BRD4-BD1: 0/1 flag; for MS labeling percentage, BRD4: BRD4-BD1, 302 nm 10 min; for BRD4-BD1 (experimental hit status): hit flag 1/0, sheet PhP, photoaffinity labeling screen
T1 construct: screened the PhP library against the first bromodomain of BRD4 (BRD4-BD1); purchased GSK/GenScript
Protocol: as §1
(§2) The PhP library was screened against BRD4-BD1 and KRas^G12D as follows. […] The probe plate was placed on ice. 15 μL of protein stock solution (1 μM BRD4-BD1 (GSK/GenScript) or KRas^G12D (GSK/GenScript) in PBS buffer) was dispensed into wells containing fragments. The plate was left on ice for 15 min for incubation, then irradiated at 302 nm for 10 min, and centrifuged (1000 rpm, 1 min) to remove any bubbles. […] The deconvoluted spectra were analyzed using R Studio software.

myoglobin (Myo) = experiment: Intact protein MS photoaffinity labeling screen, myoglobin; conditions: intact protein MS after 10 min irradiation
Protocol: as §1

STAT5B-NTD [2] = test system: T2, STAT5B-NTD; experiment: Intact MS labeling screen, STAT5B-NTD conjugated with photocatalyst Ir-G2-PEG3-COOH (450 nm); conditions: 450 nm 10 min;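 also: 0.14 µL of 100 mM DMSO fragment stock added to the conjugate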
T2 construct: His-SUMO (N, cleaved yes); made in house; host or cells: E. coli BL21 RILP
Protocol: For the photocatalysis experiments, 1.4 µL photocatalyst (in 1.4 mM DMSO solution, 10 eq) was pre-incubated with 1.5 µL coupling reagent (0.75 µL, 5.6 mM EDC (20 eq)+0.75 µL 4.2 mM NHS and 1.5 µL 2.1 mM (15 eq) BOP for 30 min in dark. 30 µL STAT5B-NTD (in 7 µM concentration) was added and incubated further at room temperature overnight or at 37 °C for 1 h in dark. After addition of 0.14 µL PhP (in 100 mM DMSO) the solution was further incubated in dark for 1 h. Irradiation was carried out using 450 nm LED lamp (7.6Vx0A) for 10 min at 4 °C.
(§3) During the analysis, the column temperature was maintained at a constant 60 °C, and a sample volume of 3 µL was injected for each analysis. Data acquisition was conducted in positive ion mode within the m/z 100–2000 (mass-to-charge ratio) range. For the full protocol and spectra of the hits, see Supplementary Note 2.

STAT5B-NTD [3] = test system: T2, STAT5B-NTD; experiment: Intact MS photoaffinity labeling screen, STAT5B-NTD (365 nm, UHPLC-MS); conditions: for experimental hit status STAT5B-NTD: 0/1 flag; for MS labeling percentage, STAT5B: STAT5B-NTD, 365 nm 10 min, no photocatalyst; for STAT5B-NTD (experimental hit status): hit flag 1/0, sheet PhP, photoaffinity labeling screen;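 as to MS labeling percentage, STAT5B: 0.17 µL of 100 mM DMSO fragment stock added to the protein sample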
Protocol: STAT5B protein in 7 µM concentration in pH 7.4 PBS buffer was pre-incubated with 0.17 µL PhP (in 100 mM DMSO solution) for 1 h at room temperature in dark. Irradiation was carried out at 4 °C for 10 min using 365 nm UV lamp.
as §3

KRas^G12D = test system: T3, KRas^G12D; experiment: Intact MS photoaffinity labeling screen, KRas G12D (302 nm, LCMS-TOF); conditions: for experimental hit status KRAS-G12D: 0/1 flag; for MS labeling percentage, KRas: KRas G12D, 302 nm 10 min; for KRAS-G12D (experimental hit status): hit flag 1/0, sheet PhP, photoaffinity labeling screen
T3 construct: purchased GSK/GenScript
Protocol: as §1, §2

MS labeling percentage, CA [1]	Structure (SMILES)	MS labeling percentage, Lyo (lysozyme (Lyo))	experimental hit status BRD4-BD1 (BRD4-BD1)	MS labeling percentage, BRD4 (BRD4-BD1)	MS labeling percentage, Myo (myoglobin (Myo))	MS labeling percentage, STAT5B+photocat (STAT5B-NTD [2])	experimental hit status STAT5B-NTD (STAT5B-NTD [3])	MS labeling percentage, STAT5B (STAT5B-NTD [3])	experimental hit status KRAS-G12D (KRas^G12D)	MS labeling percentage, KRas (KRas^G12D)	BRD4-BD1 (experimental hit status) (BRD4-BD1)	STAT5B-NTD (experimental hit status) (STAT5B-NTD [3])	KRAS-G12D (experimental hit status) (KRas^G12D)
0%	CC1(CCC(=O)NC2CCCN(c3ncc[nH]c3=O)C2)N=N1 (centres unmarked) [PhP029, N1=NC1(C)CCC(=O)NC2CCCN(C2)c3ncc[nH]c3=O]	0%	0	0.2%	0.1%	0.3%	0	0%	0	0%	–	–	–
0.7%	Cc1ccc2[nH]c(CNC(=O)CCC3(C)N=N3)nc2c1 [PhP030, c1cc(C)cc(c12)nc([nH]2)CNC(=O)CCC3(C)N=N3]	0%	0	1.2%	0.4%	0.7%	0	0%	0	1.4%	–	–	–
0.6%	CC1(CCC(=O)NCCc2nc3ccccc3[nH]2)N=N1 [PhP031, N1=NC1(C)CCC(=O)NCCc(n2)[nH]c(c23)cccc3]	0%	0	0.8%	0.3%	0.5%	0	1%	0	0.4%	–	–	–
0.2%	CCC(NC(=O)CCC1(C)N=N1)c1ccccc1OC (centres unmarked) [PhP032, N1=NC1(C)CCC(=O)NC(CC)c2ccccc2OC]	0%	0	0.3%	0.3%	1.9%	0	2.9%	0	0%	–	–	–
0.5%	CC1(CCC(=O)NCc2ccc(-n3ccnc3)cc2)N=N1 [PhP033, N1=NC1(C)CCC(=O)NCc2ccc(cc2)-n3ccnc3]	0%	0	1.1%	0.3%	0.3%	0	1%	0	0.5%	–	–	–
0.2%	COC(=O)[C@@H](Cc1c[nH]c2ccccc12)NC(=O)CCC1(C)N=N1 [PhP036, N1=NC1(C)CCC(=O)N[C@@H](C(=O)OC)Cc(c[nH]2)c(c23)cccc3]	0.4%	0	0.6%	0%	5.4%	0	2%	0	1%	–	–	–
0.5%	COc1ccc(CNC(=O)CCC2(C)N=N2)cn1 [PhP039, COc1ccc(cn1)CNC(=O)CCC2(C)N=N2]	0%	–	0.5%	0.3%	1.3%	–	1%	–	0.2%	0	0	0
0.3%	Cc1nc(NC(=O)CCC2(C)N=N2)c2cnn(-c3ccc(F)cc3)c2n1 [PhP041, c1cc(F)ccc1-n(nc2)c(c23)nc(C)nc3NC(=O)CCC4(C)N=N4]	0%	–	0.2%	0%	10.6%	–	0%	–	0.3%	0	0	0
0.9%	CC1(CCC(=O)Nc2cccc(-n3cnnn3)c2)N=N1 [PhP042, N1=NC1(C)CCC(=O)Nc2cccc(c2)-n3cnnn3]	0%	–	1%	0.2%	17.8%	–	2%	–	0.5%	0	0	0
0.5%	Cn1ccnc1-c1cc(NC(=O)CCC2(C)N=N2)n[nH]1 [PhP043, Cn1ccnc1-c2cc(n[nH]2)NC(=O)CCC3(C)N=N3]	0%	–	0.8%	0.1%	0%	–	1%	–	0.3%	0	0	0
0.2%	COc1ccccc1OCCNC(=O)CCC1(C)N=N1 [PhP044, COc1ccccc1OCCNC(=O)CCC2(C)N=N2]	0%	–	0.2%	0%	1.4%	–	1%	–	0%	0	0	0
0.5%	CC1(CCC(=O)NCC(C)(C)NS(C)(=O)=O)N=N1 [PhP045, CS(=O)(=O)NC(C)(C)CNC(=O)CCC1(C)N=N1]	0%	–	0.4%	0.2%	2.3%	–	0%	–	0.2%	0	0	0
0.2%	CC(C)CN1CCOC(CNC(=O)CCC2(C)N=N2)C1 (centres unmarked) [PhP046, CC(C)CN1CCOC(C1)CNC(=O)CCC2(C)N=N2]	0%	–	0.1%	0.3%	0.7%	–	1%	–	0.2%	0	0	0

Structure (SMILES)	MS labeling percentage, CA [1]	MS labeling percentage, Lyo (lysozyme (Lyo))	experimental hit status BRD4-BD1 (BRD4-BD1)	MS labeling percentage, BRD4 (BRD4-BD1)	MS labeling percentage, Myo (myoglobin (Myo))	MS labeling percentage, STAT5B+photocat (STAT5B-NTD [2])	experimental hit status STAT5B-NTD (STAT5B-NTD [3])	MS labeling percentage, STAT5B (STAT5B-NTD [3])	experimental hit status KRAS-G12D (KRas^G12D)	MS labeling percentage, KRas (KRas^G12D)	BRD4-BD1 (experimental hit status) (BRD4-BD1)	STAT5B-NTD (experimental hit status) (STAT5B-NTD [3])	KRAS-G12D (experimental hit status) (KRas^G12D)
CC1(CCC(=O)NCc2ccccc2O)N=N1 [PhP028, N1=NC1(C)CCC(=O)NCc2ccccc2O]	0%	0%	0	57%	0.2%	0.3%	0	1%	0	0.4%	–	–	–
